From ChEMBL document CHEMBL5241130, “Integrating a phenotypic screening with a structural simplification strategy to identify 4-phenoxy-quinoline derivatives to potently disrupt the mitotic localization of Aurora kinase B” (Bioorg Med Chem, 2023)

Assays:
Type in all cases: cell-based
[1] = molecular target: Aurora kinase B (Homo sapiens) (UniProt Q96GD4); assay: Disruption of mitotic localization of AURKB in human RPE-MYC H2B-GFP cells assessed as induction of mitotic arrest measured after 24 hrs by fluorescence high content cell imaging analysis
[2] = molecular target: Aurora kinase B (Homo sapiens) (UniProt Q96GD4); assay: Inhibition of AURKB in human RPE-MYC H2B-GFP cells assessed as inhibition of histone H3 phosphorylation at Ser10 residue by measuring residual enzyme activity at 10 uM measured after 6 hrs by immunofluorescence staining analysis (reference value: 100 +/-9%)
[3] = molecular target: Aurora kinase B (Homo sapiens) (UniProt Q96GD4); assay: Disruption of mitotic localization of AURKB in human RPE-MYC H2B-GFP cells assessed as proportion of polyploid cells in fully attached cell population at 10 uM measured after 72 hrs by fluorescence high content cell imaging analysis (Rvb <1%)
[4] = molecular target: T1, Aurora kinase A (Homo sapiens) (UniProt O14965); assay: Inhibition of AURKA in human RPE-MYC H2B-GFP cells assessed as inhibition of autophosphorylation of AURKA at Thr288 residue by measuring residual enzyme activity at 40 uM measured after 6 hrs by immunofluorescence staining analysis (reference value: 100+/-1%)
T1 sequence (whole entry): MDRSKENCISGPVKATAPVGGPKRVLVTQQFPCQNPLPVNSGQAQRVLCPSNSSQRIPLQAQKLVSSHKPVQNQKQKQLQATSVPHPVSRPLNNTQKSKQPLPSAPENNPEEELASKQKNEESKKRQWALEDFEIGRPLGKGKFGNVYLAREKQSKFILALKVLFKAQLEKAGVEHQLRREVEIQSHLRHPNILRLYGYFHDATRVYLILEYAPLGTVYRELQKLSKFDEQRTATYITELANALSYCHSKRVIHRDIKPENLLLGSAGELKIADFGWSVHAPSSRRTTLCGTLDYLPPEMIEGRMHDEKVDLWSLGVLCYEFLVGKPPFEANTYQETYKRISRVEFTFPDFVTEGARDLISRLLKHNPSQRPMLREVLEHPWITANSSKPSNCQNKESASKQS

[5] = molecular target: Aurora kinase B (Homo sapiens) (UniProt Q96GD4); assay: Disruption of mitotic localization of AURKB in human RPE-MYC H2B-GFP cells assessed as mitotic index at 20 uM measured after 6 hrs by fluorescence high content cell imaging analysis (reference value: 4.7+/-0.4%)
[6] = molecular target: Aurora kinase B (Homo sapiens) (UniProt Q96GD4); assay: Disruption of mitotic localization of AURKB in human RPE-MYC H2B-GFP cells assessed as proportion of polyploid cells in fully attached cell population at 20 uM measured after 72 hrs by fluorescence high content cell imaging analysis (Rvb <1%)
[7] = molecular target: T1, Aurora kinase A (Homo sapiens); assay: Inhibition of AURKA in human RPE-MYC H2B-GFP cells assessed as inhibition of autophosphorylation of AURKA at Thr288 residue by measuring residual enzyme activity at 10 uM measured after 6 hrs by immunofluorescence staining analysis (reference value: 100 +/-1%)
[8] = molecular target: T1, Aurora kinase A (Homo sapiens); assay: Inhibition of AURKA in human RPE-MYC H2B-GFP cells assessed as inhibition of autophosphorylation of AURKA at Thr288 residue by measuring residual enzyme activity at 20 uM measured after 6 hrs by immunofluorescence staining analysis (reference value: 100 +/-1%)
[9] = molecular target: Aurora kinase B (Homo sapiens) (UniProt Q96GD4); assay: Inhibition of AURKB in human RPE-MYC H2B-GFP cells assessed as inhibition of histone H3 phosphorylation at Ser10 residue by measuring residual enzyme activity at 20 uM measured after 6 hrs by immunofluorescence staining analysis (reference value: 100 +/-9%)
[10] = molecular target: Aurora kinase B (Homo sapiens) (UniProt Q96GD4); assay: Disruption of mitotic localization of AURKB in human RPE-MYC H2B-GFP cells assessed as proportion of polyploid cells in fully attached cell population at 40 uM measured after 72 hrs by fluorescence high content cell imaging analysis (Rvb <1%)
[11] = molecular target: Aurora kinase B (Homo sapiens) (UniProt Q96GD4); assay: Disruption of mitotic localization of AURKB in human RPE-MYC H2B-GFP cells assessed as induction of polyploidy by fluorescence high content cell imaging analysis
[12] = molecular target: Aurora kinase B (Homo sapiens) (UniProt Q96GD4); assay: Disruption of mitotic localization of AURKB in human RPE-MYC H2B-GFP cells assessed as mitotic index at 40 uM measured after 6 hrs by fluorescence high content cell imaging analysis (reference value: 4.7+/-0.4%)
[13] = molecular target: Aurora kinase B (Homo sapiens) (UniProt Q96GD4); assay: Disruption of mitotic localization of AURKB in human RPE-MYC H2B-GFP cells assessed as mitotic index at 10 uM measured after 6 hrs by fluorescence high content cell imaging analysis (reference value: 4.7+/-0.4%)
[14] = molecular target: Aurora kinase B (Homo sapiens) (UniProt Q96GD4); assay: Inhibition of AURKB in human RPE-MYC H2B-GFP cells assessed as inhibition of histone H3 phosphorylation at Ser10 residue by measuring residual enzyme activity at 40 uM measured after 6 hrs by immunofluorescence staining analysis (reference value: 100 +/-9%)

Sequence of Aurora kinase B (Homo sapiens) (Q96GD4 whole entry): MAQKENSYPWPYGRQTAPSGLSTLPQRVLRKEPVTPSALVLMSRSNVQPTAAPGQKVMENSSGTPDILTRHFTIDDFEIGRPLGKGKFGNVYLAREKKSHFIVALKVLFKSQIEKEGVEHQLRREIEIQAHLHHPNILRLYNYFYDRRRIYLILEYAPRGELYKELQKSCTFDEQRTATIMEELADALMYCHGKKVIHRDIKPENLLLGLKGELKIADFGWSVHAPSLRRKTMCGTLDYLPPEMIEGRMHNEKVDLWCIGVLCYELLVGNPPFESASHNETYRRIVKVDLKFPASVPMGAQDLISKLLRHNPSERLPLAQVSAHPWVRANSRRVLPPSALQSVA

Structure (SMILES): Nc1ccc(Oc2ccnc3ccccc23)cc1
- MEC [1]: 10 µM
- Activity [2]: 104%
- Activity [3]: 100%
- Activity [4]: 115%
- Activity [5]: 16.2%
- Activity [6]: 100%
- Activity [7]: 106%
- Activity [8]: 109%
- Activity [9]: 102%
- Activity [10]: 100%
- MEC [11]: 10 µM
- Activity [12]: 15.6%
- Activity [13]: 15.6%
- Activity [14]: 105%
